Converted amounts (≈) assume the structure as drawn.

As usually defined, the IC50 is the concentration that inhibits the measured activity by half. What is called solubility is the concentration that dissolves in the medium under given conditions.

Series [1] in a line: Pharmacokinetics assay in SD rats after intragastric administration, plasma LC/MS/MS. The series is classed as in vivo. To be noted: for Detection of the administered prodrug compound itself in rat plasma: after intragastric administration, LC/MS/MS; for In vivo conversion of the prodrug into its metabolite: intragastric administration. The method, then: Test Example 2. Pharmacokinetics Assay of the Compounds of the Present Disclosure in Rats
SD rats were used as test animals. The drug concentration in plasma at different time points was determined by LC/MS/MS method after oral administration of the compounds of Example 2, Example 6 and Example 7 to SD rats. The pharmacokinetic behavior of the compounds of the present disclosure was studied and evaluated in SD rats.
Forty SD rats (half male and half female, equally divided into ten groups) were purchased from Shanghai Jiesijie Laboratory Animal Co., LTD. (Certificate No.: SCXK(Shanghai) 2013-0006).
An appropriate amount of the compound of Example 2 was weighed, followed by the addition of 5% of DMSO, 5% of tween 80 and 90% of normal saline successively to obtain a colorless, clear and transparent solution.
An appropriate amount of the compound of Example 2 was weighed, followed by the addition of 0.5% sodium carboxymethyl cellulose (containing 0.5% tween 80) to obtain a white homogeneous suspension.
An appropriate amount of the compound of Example 6 was weighed, and added to 200 mM (5% PVPK30+5% TPGS) Na2HPO4 solution (pH=9) to obtain a homogeneous suspension.
An appropriate amount of the compound of Example 7 was weighed, and added to 200 mM (5% PVPK30+5% TPGS) Na2HPO4 solution (pH=9) to obtain a homogeneous suspension.
After an overnight fast, the SD rats were intragastrically administered the test compounds. Regarding to the compound of Example 2 (formulation: 5% of DMSO, 5% of tween 80 and 90% of normal saline), the administration dose was 2 mg/kg, the administration volume was 10 mL/kg, and the administration concentration was 0.2 mg/mL. Regarding to the compound of Example 2 (formulation: 0.5% sodium carboxymethyl cellulose (containing 0.5% tween 80)), the administration dose was 10, 30, 100 mg/kg, the administration volume was 10 mL/kg, and the administration concentration was 1, 3, 10 mg/mL. Regarding to the compound of Example 6, the administration dose was 100, 300, 900 mg/kg, the administration volume was 10 mL/kg, and the administration concentration was 10, 30, 90 mg/mL. Regarding to the compound of Example 7, the administration dose was 10, 30, 100 mg/kg, the administration volume was 10 mL/kg, and the administration concentration was 1, 3, 10 mg/mL.
After an overnight fast, the SD rats were intragastrically administered the test compounds. 0.2 ml of blood was taken from the orbit before the administration and at 0.5, 1.0, 2.0, 4.0, 6.0, 8.0, 11.0 and 24.0 hours after the administration. The samples were stored in heparinized tubes, and centrifuged for 10 minutes at 3500 rpm to separate the blood plasma. The plasma samples were stored at −20° C. The SD rats were fed 2 hours after the administration.
The content of the test compound in the plasma of SD rats after administration of the test compound at different concentrations was determined: 25 μL of SD rat plasma at each time point after the administration was taken, followed by the addition of 50 μL of the internal standard camptothecin solution (100 ng/mL) and 200 μL of acetonitrile. The resulting solution was vortex-mixed for 5 minutes, and centrifuged for 10 minutes (3700 rpm). 3.0 μL of the supernatant was taken from the plasma samples of the compound of Example 2 (the group at the administration dose of 2 mg/kg) for LC/MS/MS analysis. 2.0 μL of the supernatant was taken from the plasma samples of the compound of Example 2 (the group at the administration dose of 10, 30, or 100 mg/kg) for LC/MS/MS analysis. 0.2 μL of the supernatant was taken from the plasma samples of the compound of Example 6 for LC/MS/MS analysis. 1 μL of the supernatant was taken from the plasma samples of the compound of Example 7 for LC/MS/MS analysis. […]

The target of the next series is T1, NaV1.8 ion channel (Homo sapiens, UniProt Q9Y5Y9).
T1 construct: expressed in transfected cells
T1 sequence (Q9Y5Y9 whole entry): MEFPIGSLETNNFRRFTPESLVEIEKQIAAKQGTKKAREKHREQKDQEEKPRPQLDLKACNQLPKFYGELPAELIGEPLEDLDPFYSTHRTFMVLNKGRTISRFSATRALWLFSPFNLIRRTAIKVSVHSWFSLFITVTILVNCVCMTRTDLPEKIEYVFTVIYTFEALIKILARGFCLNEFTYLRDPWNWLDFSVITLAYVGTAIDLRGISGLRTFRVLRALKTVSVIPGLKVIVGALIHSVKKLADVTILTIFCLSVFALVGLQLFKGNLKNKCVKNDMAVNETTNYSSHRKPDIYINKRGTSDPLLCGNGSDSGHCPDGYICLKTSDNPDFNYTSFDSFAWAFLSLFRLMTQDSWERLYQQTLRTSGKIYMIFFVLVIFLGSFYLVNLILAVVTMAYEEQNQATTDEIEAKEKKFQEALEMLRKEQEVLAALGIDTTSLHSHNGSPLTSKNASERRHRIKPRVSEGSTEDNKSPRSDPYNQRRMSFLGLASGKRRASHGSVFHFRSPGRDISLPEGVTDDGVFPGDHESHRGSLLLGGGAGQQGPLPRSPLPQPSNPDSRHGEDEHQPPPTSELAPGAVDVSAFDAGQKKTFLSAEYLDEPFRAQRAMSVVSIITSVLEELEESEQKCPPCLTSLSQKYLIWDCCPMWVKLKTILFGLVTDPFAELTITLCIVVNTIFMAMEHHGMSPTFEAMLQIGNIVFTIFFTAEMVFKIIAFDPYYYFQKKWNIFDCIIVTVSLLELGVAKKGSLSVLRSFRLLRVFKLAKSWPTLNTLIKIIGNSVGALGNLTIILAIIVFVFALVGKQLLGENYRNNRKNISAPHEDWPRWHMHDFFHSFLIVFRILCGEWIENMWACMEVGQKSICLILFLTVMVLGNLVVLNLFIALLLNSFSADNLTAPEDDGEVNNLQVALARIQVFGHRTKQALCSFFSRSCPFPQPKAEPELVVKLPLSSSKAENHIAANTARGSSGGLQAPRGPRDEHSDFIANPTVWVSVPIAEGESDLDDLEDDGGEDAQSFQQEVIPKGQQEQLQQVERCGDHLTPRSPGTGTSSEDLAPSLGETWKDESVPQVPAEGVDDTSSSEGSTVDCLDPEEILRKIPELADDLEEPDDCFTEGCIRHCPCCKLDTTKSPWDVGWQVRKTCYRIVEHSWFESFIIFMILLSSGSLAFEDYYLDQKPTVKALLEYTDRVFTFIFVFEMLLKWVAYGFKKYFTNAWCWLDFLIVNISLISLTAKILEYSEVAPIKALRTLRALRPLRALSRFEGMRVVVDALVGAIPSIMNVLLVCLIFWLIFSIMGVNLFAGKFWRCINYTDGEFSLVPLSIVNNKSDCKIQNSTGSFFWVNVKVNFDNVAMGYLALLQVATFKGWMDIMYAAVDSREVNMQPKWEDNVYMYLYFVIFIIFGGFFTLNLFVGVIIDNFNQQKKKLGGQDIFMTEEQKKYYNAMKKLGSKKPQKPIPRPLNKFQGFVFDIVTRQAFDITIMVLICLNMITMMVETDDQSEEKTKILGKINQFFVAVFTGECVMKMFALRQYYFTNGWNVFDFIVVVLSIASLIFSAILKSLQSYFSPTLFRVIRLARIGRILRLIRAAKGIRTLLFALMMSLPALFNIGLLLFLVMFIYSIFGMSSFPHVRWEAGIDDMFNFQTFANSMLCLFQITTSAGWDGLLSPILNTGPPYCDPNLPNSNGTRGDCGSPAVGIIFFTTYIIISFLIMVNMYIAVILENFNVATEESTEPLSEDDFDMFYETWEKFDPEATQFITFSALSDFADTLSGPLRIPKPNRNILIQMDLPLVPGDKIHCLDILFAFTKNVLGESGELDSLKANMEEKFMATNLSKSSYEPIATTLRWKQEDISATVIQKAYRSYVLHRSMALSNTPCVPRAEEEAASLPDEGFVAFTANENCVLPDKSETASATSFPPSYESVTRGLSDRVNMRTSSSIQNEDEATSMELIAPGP
In words: Manual patch clamp, inhibitory activity on NaV1.8 stably expressed on HEK293 cells. The format is cell-based. The conditions noted are these: HEK293 cells stably expressing NaV1.8, manual patch clamp, resting protocol (clamped at -80 mV, depolarized to 10 mV), 1 μM TTX; read-out: IC50 on inhibiting the Nav1.8 channel activity. The source says:
Test Example 3. Determination of the Inhibitory Activity of the Compounds of the Present Disclosure on NaV1.8
The purpose of the experiment is to investigate the effect of the compounds on NaV1.8 ion channel in an in vitro experiment, wherein the NaV1.8 ion channel is stably expressed on HEK293 cells. After the NaV1.8 current becomes stable, the NaV1.8 currents before and after the administration of the compound are compared so as to obtain the effect of the compound on the NaV1.8 ion channel.
Except for NaOH and KOH used for acid titration and base titration, all the compounds used for formulating the extracellular fluid and intracellular fluid were purchased from Sigma (St. Louis, Mo.). Extracellular fluid (mM): NaCl, 137; KCl, 4; CaCl2, 1.8; MgCl2, 1; HEPES, 10; glucose, 10; pH 7.4 (NaOH titration). Intracellular fluid (mM): aspartic acid, 140; MgCl2, 2; EGTA, 11; HEPES, 10; pH 7.2 (CsOH titration). All solutions of test compound and control compound contained 1 μM TTX.
The test compound was dissolved in dimethyl sulfoxide (DMSO) at a stock concentration of 9 mM. The stock solution of the test compound was dissolved in the extracellular fluid on the day of the test and formulated into the required concentration.
1) The compound was formulated into solutions with specified concentrations, the solutions were added to the pipelines respectively in order from low to high concentration, and the pipelines were marked.
2) The cell was transferred to the perfusion tank. A positive pressure was applied to the electrode. The tip of the electrode touched the cell. The three-way valve of the air extracting device was adjusted to a three-way state. […]
The cell was clamped at −80 mV. […] The maximum current caused by the square wave was measured. […] After the response became stable, the blocking intensity was calculated. […]
The inhibitory activity of the compounds of the present disclosure on NaV1.8 was determined by the above test, and the resulting IC50 values are shown in Table 3.
For orientation: In patch-clamp work, channel activity is measured electrically.

The nature of series [2]: Solubility in PBS solution (pH 7.4) at room temperature. The series is classed as physicochemical. The conditions noted are these: PBS solution (pH 7.4), aqueous buffer, kinetic from dmso stock; PBS pH 7.4, room temperature, 24 hours shaking, 1% DMSO, average of two measurements; read-out: Solubility in PBS pH7.4. As for the experimental part: Test Example 1. Solubility of the Compound of the Present Disclosure in PBS Solution (pH 7.4) at Room Temperature
2.1 Formulation of the PBS solution (pH 7.4): 0.57 g of NaH2PO42.H2O, 5.55 g of Na2HPO4.12H2O and 6.48 g of NaCl were weighed, followed by the addition of ultra-pure water. The pH was adjusted to 7.4±0.05 with 1 M NaOH or 1 M HCl. Water was added until the volume reached 1 L. The PBS solution was stored in a refrigerator at 4° C. (the storage life was 6 months).
2.2 Formulation of the solution of the compound in PBS 7.4: An appropriate amount of the test compound was weighed, and dissolved in DMSO or a mixed solution of DMSO:acetonitrile:ethanol (1:1:1) to obtain a 10 mM stock solution of the test compound. 10 μL of the stock solution of the test compound and 990 μL of the PBS solution (pH 7.4) were precisely measured and placed in a 2 mL sample vial and mixed well, and the DMSO concentration of the final solution was 1% (v/v). This solution was formulated in duplicate, shaken on a plate bed at room temperature for 24 hours, and centrifuged at 5000 rpm for 20 minutes. The supernatant was analyzed by the liquid chromatograph.
2.3 Formulation of the reference solution: 10 μL of the stock solution of the test sample (concentration: 10 mM, dissolved in DMSO) and 990 μL of an organic mixed solvent (usually DMSO:acetonitrile:ethanol=1:1:1) were precisely measured and placed in a 2 mL sample vial, and mixed well to obtain a clear 100 μM sample solution. The solution was filtered through a 0.45 μm organic phase microporous filter membrane, and the filtrate was analyzed by the liquid chromatograph.
Solubility (μM)=peak area of the sample/peak area of the reference*concentration of the reference (μM)*sample solution dilution factor
The average of two measurements was used as the final solubility.

With `Cc1cc(F)ccc1Oc1cc(C(F)(F)F)c(Cl)cc1C(=O)Nc1cnn(COC(=O)CCC(=O)O)c(=O)c1` [Example 2, 4-((4-(5-Chloro-2-(4-fluoro-2-methylphenoxy)-4-(trifluoromethyl)benzamido)-6-oxopyridazin-1(6H)-yl)methoxy)-4-oxobutanoic acid], in series [1], the “Detection of the administered prodrug compound itself in rat plasma” value (shortened to “Detection”) is “not detected” and the “In vivo conversion of the prodrug into its metabolite” value (shortened to “In vivo conversion”) is reported as “converted into compound 1h in vivo”. Further, the IC50 at NaV1.8 ion channel worked out at 37.6 nM. In addition, the solubility at 24 h in series [2] is 57.4 µM (≈ 32.8 µg/mL).

Turning to `COc1cc(F)ccc1Oc1cc(C(F)(F)F)c(Cl)cc1C(=O)Nc1cnn(COC(=O)CCC(=O)O)c(=O)c1` [Example 6, 4-((4-(5-Chloro-2-(4-fluoro-2-methoxyphenoxy)-4-(trifluoromethyl)benzamido)-6-oxopyridazin-1(6H)-yl)methoxy)-4-oxobutanoic acid], in series [1], the “Detection” value is “not detected” and the “In vivo conversion” value is reported as “converted into compound 6c in vivo”. For the same compound, on NaV1.8 ion channel, the IC50 came out at 3.9 nM. Also, in series [2], the solubility at 24 h was 44.9 µM (≈ 26.4 µg/mL).

In the case of `[2H]C([2H])([2H])Oc1cc(F)ccc1Oc1cc(C(F)(F)F)c(Cl)cc1C(=O)Nc1cnn(COC(=O)CCC(=O)O)c(=O)c1` [Example 7, 4-((4-(5-Chloro-2-(4-fluoro-2-(methoxy-d3)phenoxy)-4-(trifluoromethyl)benzamido)-6-oxopyridazin-1(6H)-yl)methoxy)-4-oxobutanoic acid], in series [1], the “Detection” value is “not detected” and the “In vivo conversion” value was “converted into compound 7d in vivo”. The IC50 at NaV1.8 ion channel was 14.5 nM. In series [2], the solubility at 24 h worked out at 34.5 µM (≈ 20.4 µg/mL).

(Values after US20220162169A1, “6-OXO-1,6-DIHYDROPYRIDAZINE PRODRUG DERIVATIVE, PREPARATION METHOD THEREFOR, AND APPLICATION THEREOF IN MEDICINE” (JIANGSU HENGRUI MEDICINE CO., LTD., priority 2019, published 2022).)
